# Patent publication US20250082655A1, “USE OF HETEROCYCLIC COMPOUND” (WUHAN CREATERNA SCIENCE AND TECHNOLOGY CO., LTD., priority 2022, published 2025)
# Values joined by “and” are separate entries in the source; they are usually repeats but may differ in a detail not shown here. Equal values may be shown once.
# Test system: citric acid-induced acute cough in guinea pigs
# Assay: ATP-sensitized citric acid-induced acute cough model in guinea pigs (WBP system)
# Type: in vivo, guinea pig
# Details: for Total cough count (CCnt): within 10 minutes, Mean ± SEM, N = 12; for Change rate of total cough count: versus solvent group; for average cough times decreased compared to the solvent group: decrease; for antitussive effect (in words): compared to the solvent group
# Protocol: • Male Hartley guinea pigs: Beijing Vital River Laboratory Animal Technology Co., Ltd; • 250 μM ATP solution: Sigma, catalog number A2383; • 0.5 M citric acid solution: Sigma, catalog number C2404; • DSI Buxco Whole Body Plethysmography (WBP) system instrument: manufacturer DSI, serial numbers 100249, 990171; • Electronic balance: Mettler Toledo, serial number B844687071.
# • Solvent (10% (v/v) E-TPGS aqueous solution, pH 7.4±0.1): TPGS was heated and melted into a liquid in a water bath. 10 mL of TPGS was taken and then added to 85 mL of deionized water, and the mixture was stirred to form a homogeneous solution. The pH was adjusted to 7.4±0.1 using an appropriate concentration of HCl/NaOH. The final volume was made up to 100 mL with deionized water, and the mixture was stirred until visually homogeneous. The pH was checked, and if necessary, adjusted to 7.4±0.1 using an appropriate concentration of HCl/NaOH.
# The administration formulation was prepared under yellow light conditions.
# The required mass of the compound was accurately weighed into an appropriate container, and slowly added to a suitable container containing 80% of the final volume of the solvent (10% (v/v) E-TPGS aqueous solution, pH 7.4±0.1), and the mixture was stirred until visually homogeneous. The solvent was added to 90% of the final volume, and the mixture was stirred until visually homogeneous. If necessary, the pH was adjusted to 7.3-7.6 with an appropriate concentration of HCl/NaOH. If necessary, the formulation was subjected to ultrasonic treatment. The solvent was then added to the final volume, and the mixture was stirred until a visually clear and homogeneous solution was obtained.
# After the preparation of the administration formulation was completed, the administration formulation was aliquoted into daily doses and stored in a refrigerator at 2-8° C., protected from light, and used within 10 days. Prior to administration, the formulation was removed from the refrigerator 30 minutes in advance, and stirred for 30 minutes at room temperature and protected from light until it reached room temperature.
# Preparation of dextromethorphan: the required volume for administration was calculated based on the animal's body weight. The weighting amount of dextromethorphan (DM) was determined based on the administration volume and dose. The DM was accurately weighed and dissolved in 1×PBS (Phosphate Buffered Saline) with the calculated administration volume. The solution was mixed homogeneously by shaking until a clear solution was formed, and it was prepared freshly before use.
# In the experiment, the solvent (10% (v/v) E-TPGS (Vitamin E Polyethylene Glycol Succinate)) and each test compound were administered to guinea pigs by gavage 3 hours prior to citric acid nebulization. The reference compound, dextromethorphan (DM), was administered to guinea pigs by gavage 40 minutes prior to citric acid nebulization (see Table 1 for details).
# At the scheduled time, male Hartley guinea pigs (300-400 g) were placed in the respiratory volume plethysmography chamber of the DSI Buxco Whole Body Plethysmography (WBP) system. After an acclimation period of 3-5 minutes, a solution of ATP with a concentration of 250 μM was nebulized and sprayed into the chamber for 2 minutes. After a 3-minute interval, a solution of citric acid with a concentration of 0.5 M was administered for 5 minutes to induce coughing. From the start of citric acid nebulization, the WBP system recorded the total cough counts (CCnt) within 10 minutes and the cough incubation period (CIP, i.e., the time from the start of citric acid induction to the appearance of the first cough).
# [1] = 30 mg/kg oral single dose 3 hours before citric acid nebulization
# [2] = 30 mg/kg oral, 3 hours before citric acid nebulization
# [3] = 30 mg/kg oral, 3 hours before citric acid
structure (smiles),measurement,setting,value
"O=C(c1ccc(F)cc1C(F)(F)F)c1cnc2n1CCN(c1cnn(COP(=O)(O)O)c(=O)c1Cl)C2 [Compound 1, (5-chloro-4-(3-(4-fluoro-2-(trifluoromethyl)benzoyl)-5,6-dihydroimidazo[1,2-a]pyrazin-7(8H)-yl)-6-oxopyridazin-1(6H)-yl)methyl Dihydrogen Phosphate]",Total cough count (CCnt),3 mg/kg oral single dose 3 hours before citric acid nebulization,17.00 times and 17.00 ± 2.11 times
same,Cough incubation period (CIP),"3 mg/kg oral, 3 hours before citric acid nebulization",234.42 s and 234.42 ± 24.11 s
same,Change rate of total cough count,"3 mg/kg oral, 3 hours before citric acid",−20.93%
same,average cough times decreased compared to the solvent group,3 mg/kg oral,20.93%
same,Total cough count (CCnt),10 mg/kg oral single dose 3 hours before citric acid nebulization,13.42 times and 13.42 ± 1.18 times
same,Cough incubation period (CIP),"10 mg/kg oral, 3 hours before citric acid nebulization",283.67 s and 283.67 ± 42.98 s
same,Change rate of total cough count,"10 mg/kg oral, 3 hours before citric acid",−37.60%
same,average cough times decreased compared to the solvent group,10 mg/kg oral,37.60%
same,Total cough count (CCnt),[1],10.73 times and 10.73 ± 1.71 times
same,Cough incubation period (CIP),[2],293.75 s and 293.75 ± 33.66 s
same,Change rate of total cough count,[3],−50.11%
same,average cough times decreased compared to the solvent group,30 mg/kg oral,50.11%
same,antitussive effect (in words),,good antitussive effect
O=c1[nH]ncc(N2CCc3c(ncnc3Oc3ccc(F)cc3C(F)(F)F)C2)c1Cl [Compound 2-1],Total cough count (CCnt),[1],12.75 ± 1.86 times
same,Cough incubation period (CIP),[2],290.08 s and 290.08 ± 43.61 s
same,Change rate of total cough count,[3],−40.70%
same,average cough times decreased compared to the solvent group,30 mg/kg oral,40.70%
same,antitussive effect (in words),,good antitussive efficacy
O=c1c(-c2ccc(O)cc2)coc2cc(O)cc(O)c12 [Compound 3-1],Total cough count (CCnt),[1],11.83 ± 2.02 times
same,Cough incubation period (CIP),[2],281.67 s and 281.67 ± 37.84 s
same,Change rate of total cough count,[3],−44.96%
same,average cough times decreased compared to the solvent group,30 mg/kg oral,44.96%
same,antitussive effect (in words),,good antitussive efficacy
"COc1ccc2c(c1)[C@]13CCCC[C@@H]1[C@H](C2)N(C)CC3 [DM, dextromethorphan, reference compound]",Total cough count (CCnt),63 mg/kg oral single dose 40 minutes before citric acid nebulization,12.17 times and 12.17 ± 2.76 ^c times
same,Cough incubation period (CIP),"63 mg/kg oral, 40 minutes before citric acid nebulization",291.00 s and 291.00 ± 41.65 s
same,Change rate of total cough count,"63 mg/kg oral, 40 minutes before citric acid",−43.41%
